Patent US8163793B2, “Proline derivatives” (Hoffman-La Roche Inc., priority 2009, dated 2012)

Key:
Cat L = Cat L (UniProt P07711); assay: Cathepsin enzyme inhibition assay (fluorogenic peptide substrate Z-Val-Val-Arg-AMC), Cathepsin L; type: biochemical, human and mouse; conditions: enzyme 1 nM, substrate 20 μM, pH 6.5; read-out: CatL IC50
Summary of the method: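 Fluorogenic cleavage of Z-Val-Val-Arg-AMC (20 μM) by 1 nM Cat L was monitored at ex 360/em 465 nm for 20 min, the linear phase. The buffer was 100 mM potassium phosphate pH 6.5 with 5 mM EDTA and DTT. IC50 values were derived by standard methods, in μM.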

Cathepsin S = Cathepsin S (UniProt P25774); assay: Cathepsin enzyme inhibition assay (fluorogenic peptide substrate Z-Val-Val-Arg-AMC), Cathepsin S; type: biochemical, human and mouse; conditions: enzyme 1 nM, substrate 20 μM, pH 6.5; read-out: CatS IC50
Summary of the method: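 Compounds were combined with 1 nM human or mouse enzyme, and substrate then started the reaction. The buffer was potassium phosphate (100 mM, pH 6.5) containing EDTA-Na 5 mM, Triton X-100 0.001% and […] 5 mM.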

Row | Structure (SMILES) | IC50 (Cat L) | IC50 (Cathepsin S)
1 | CN1CCC[C@H]1C(=O)N1C[C@H](S(=O)(=O)c2ccccc2Cl)C[C@H]1C(=O)NC1(C#N)CC1 [Example 81, (R)-4-(2-Chloro-benzenesulfonyl)-1-((S)-1-methyl-pyrrolidine-2-carbonyl)-pyrrolidine-2-carboxylic acid (1-cyano-cyclopropyl)-amide formiate] | 6030 nM | 3.2 nM
2 | CN1CCC(C(=O)N2C[C@H](S(=O)(=O)c3ccccc3Cl)C[C@H]2C(=O)NC2(C#N)CC2)CC1 [Example 82, (2S,4R)-4-(2-Chloro-benzenesulfonyl)-1-(1-methyl-piperidine-4-carbonyl)-pyrrolidine-2-carboxylic acid (1-cyano-cyclopropyl)-amide] | 6800 nM | 8.7 nM
3 | CCN1C[C@H](S(=O)(=O)c2ccccc2Cl)C[C@H]1C(=O)NC1(C#N)CC1 [Example 83, (2S,4R)-4-(2-Chloro-benzenesulfonyl)-1-ethyl-pyrrolidine-2-carboxylic acid (1-cyano-cyclopropyl)-amide] | 62100 nM | 30.5 nM
4 | N#CC1(NC(=O)[C@@H]2C[C@@H](S(=O)(=O)c3ccccc3Cl)CN2C2CCC2)CC1 [Example 84, (2S,4R)-4-(2-Chloro-benzenesulfonyl)-1-cyclobutyl-pyrrolidine-2-carboxylic acid (1-cyano-cyclopropyl)-amide] | ≥ 25000 nM | 55 nM
5 | N#CC1(NC(=O)[C@@H]2C[C@@H](S(=O)(=O)c3ccccc3Cl)CN2C2CCCCC2)CC1 [Example 85, (2S,4R)-4-(2-Chloro-benzenesulfonyl)-1-cyclohexyl-pyrrolidine-2-carboxylic acid (1-cyano-cyclopropyl)-amide] | ≥ 25000 nM | 9.4 nM
6 | N#CC1(NC(=O)[C@@H]2C[C@@H](S(=O)(=O)c3ccccc3Cl)CN2Cc2ccncc2)CC1 [Example 86, (2S,4R)-4-(2-Chloro-benzenesulfonyl)-1-pyridin-4-ylmethyl-pyrrolidine-2-carboxylic acid (1-cyano-cyclopropyl)-amide] | 14600 nM | 23 nM
7 | N#CC1(NC(=O)[C@@H]2C[C@@H](S(=O)(=O)c3ccccc3Cl)CN2CCc2ccccc2)CC1 [Example 87, (2S,4R)-4-(2-Chloro-benzenesulfonyl)-1-phenethyl-pyrrolidine-2-carboxylic acid (1-cyano-cyclopropyl)-amide] | 4720 nM | 37.5 nM
8 | N#CC1(NC(=O)[C@@H]2C[C@@H](S(=O)(=O)c3ccccc3Cl)CN2CC(F)F)CC1 [Example 88, (2S,4R)-4-(2-Chloro-benzenesulfonyl)-1-(2,2-difluoro-ethyl)-pyrrolidine-2-carboxylic acid (1-cyano-cyclopropyl)-amide] | ≥ 25000 nM | 275 nM
9 | CC(CN1C[C@H](S(=O)(=O)c2ccccc2Cl)C[C@H]1C(=O)NC1(C#N)CC1)C(F)(F)F (stereo partly drawn) [Example 90, (2S,4R)-4-(2-Chloro-benzenesulfonyl)-1-(3,3,3-trifluoro-2-methyl-propyl)-pyrrolidine-2-carboxylic acid (1-cyano-cyclopropyl)-amide] | ≥ 25000 nM | 84.5 nM
10 | N#CC1(NC(=O)[C@@H]2C[C@@H](S(=O)(=O)c3ccccc3Cl)CN2CCC(F)(F)F)CC1 [Example 91, (2S,4R)-4-(2-Chloro-benzenesulfonyl)-1-(3,3,3-trifluoro-propyl)-pyrrolidine-2-carboxylic acid (1-cyano-cyclopropyl)-amide] | ≥ 25000 nM | 120 nM
11 | N#CC1(NC(=O)[C@@H]2C[C@@H](S(=O)(=O)c3ccccc3Cl)CN2CC(F)(F)C(F)(F)F)CC1 [Example 92, (2S,4R)-4-(2-Chloro-benzenesulfonyl)-1-(2,2,3,3,3-pentafluoro-propyl)-pyrrolidine-2-carboxylic acid (1-cyano-cyclopropyl)-amide] | 61700 nM | 41 nM
12 | CN1C[C@H](S(=O)(=O)c2ccccc2Cl)C[C@H]1C(=O)NC1(C#N)CC1 [Example 93, (2S,4R)-4-(2-Chloro-benzenesulfonyl)-1-methyl-pyrrolidine-2-carboxylic acid (1-cyano-cyclopropyl)-amide] | ≥ 25000 nM | 966 nM
13 | CN1C[C@H](S(=O)(=O)c2ccccc2Cl)C[C@H]1C(=O)N(C)C1(C#N)CC1 [Example 94, (2S,4R)-4-(2-Chloro-benzenesulfonyl)-1-methyl-pyrrolidine-2-carboxylic acid (1-cyano-cyclopropyl)-methyl-amide Formiate] | 40000 nM | 945 nM
14 | CCOC(=O)N1C[C@H](S(=O)(=O)c2ccccc2Cl)C[C@H]1C(=O)NC1(C#N)CC1 [Example 96, (2S,4R)-4-(2-Chloro-benzenesulfonyl)-2-(1-cyano-cyclopropylcarbamoyl)-pyrrolidine-1-carboxylic acid ethyl ester] | 31500 nM | 2.6 nM
15 | CC(C)OC(=O)N1C[C@H](S(=O)(=O)c2ccccc2Cl)C[C@H]1C(=O)NC1(C#N)CC1 [Example 97, (2S,4R)-4-(2-Chloro-benzenesulfonyl)-2-(1-cyano-cyclopropylcarbamoyl)-pyrrolidine-1-carboxylic acid Isopropyl Ester] | 22800 nM | 2.4 nM
16 | N#CC1(NC(=O)[C@@H]2C[C@@H](S(=O)(=O)c3ccccc3Cl)CN2C(=O)OC2CCCC2)CC1 [Example 98, (2S,4R)-4-(2-Chloro-benzenesulfonyl)-2-(1-cyano-cyclopropylcarbamoyl)-pyrrolidine-1-carboxylic acid Cyclopentyl Ester] | 15700 nM | 1.1 nM
17 | N#CC1(NC(=O)[C@@H]2C[C@@H](S(=O)(=O)c3ccccc3Cl)CN2C(=O)Oc2ccc(F)cc2)CC1 [Example 99, (2S,4R)-4-(2-Chloro-benzenesulfonyl)-2-(1-cyano-cyclopropylcarbamoyl)-pyrrolidine-1-carboxylic acid 4-fluoro-phenyl Ester] | ≥ 25000 nM | 2.6 nM

The remaining lines, values ahead:

Row | IC50 (Cat L) | IC50 (Cathepsin S) | Structure (SMILES)
18 | 29700 nM | 1.4 nM | CC(=O)N1C[C@H](S(=O)(=O)c2ccccc2Cl)C[C@H]1C(=O)NC1(C#N)CC1 [Example 79, (2S,4R)-1-Acetyl-4-(2-chloro-benzenesulfonyl)-pyrrolidine-2-carboxylic acid (1-cyano-cyclopropyl)-amide]
19 | 9770 nM | 0.8 nM | N#CC1(NC(=O)[C@@H]2C[C@@H](S(=O)(=O)c3ccccc3Cl)CN2C(=O)C(F)(F)F)CC1 [Example 80, (2S,4R)-4-(2-Chloro-benzenesulfonyl)-1-(2,2,2-trifluoro-acetyl)-pyrrolidine-2-carboxylic acid (1-cyano-cyclopropyl)-amide]
20 | ≥ 25000 nM | 110 nM | N#CC1(NC(=O)[C@@H]2C[C@@H](S(=O)(=O)c3ccccc3Cl)CN2CC(F)(F)F)CC1 [Example 89, (2S,4R)-4-(2-Chloro-benzenesulfonyl)-1-(2,2,2-trifluoro-ethyl)-pyrrolidine-2-carboxylic acid (1-cyano-cyclopropyl)-amide]
21 | ≥ 25000 nM | 7.6 nM | COC(=O)N1C[C@H](S(=O)(=O)c2ccccc2Cl)C[C@H]1C(=O)NC1(C#N)CC1 [Example 95, (2S,4R)-4-(2-Chloro-benzenesulfonyl)-2-(1-cyano-cyclopropylcarbamoyl)-pyrrolidine-1-carboxylic acid methyl ester]
22 | ≥ 25000 nM | 7.7 nM | N#CC1(NC(=O)[C@@H]2C[C@@H](S(=O)(=O)c3ccccc3C(F)(F)F)CN2C=O)CC1 [Example 100, (2S,4R)-1-Formyl-4-(2-trifluoromethyl-benzenesulfonyl)-pyrrolidine-2-carboxylic acid (1-cyano-cyclopropyl)-amide]
23 | ≥ 25000 nM | 6.7 nM | CC(=O)N1C[C@H](S(=O)(=O)c2ccccc2C(F)(F)F)C[C@H]1C(=O)NC1(C#N)CC1 [Example 101, (2S,4R)-1-Acetyl-4-(2-trifluoromethyl-benzenesulfonyl)-pyrrolidine-2-carboxylic acid (1-cyano-cyclopropyl)-amide]
24 | ≥ 25000 nM | 3.6 nM | N#CC1(NC(=O)[C@@H]2C[C@@H](S(=O)(=O)c3ccccc3C(F)(F)F)CN2C(=O)C(F)(F)F)CC1 [Example 102, (2S,4R)-1-(2,2,2-Trifluoro-acetyl)-4-(2-trifluoromethyl-benzenesulfonyl)-pyrrolidine-2-carboxylic acid (1-cyano-cyclopropyl)-amide]
25 | ≥ 25000 nM | 1.6 nM | CCC(=O)N1C[C@H](S(=O)(=O)c2ccccc2C(F)(F)F)C[C@H]1C(=O)NC1(C#N)CC1 [Example 103, (2S,4R)-1-Propionyl-4-(2-trifluoromethyl-benzenesulfonyl)-pyrrolidine-2-carboxylic acid (1-cyano-cyclopropyl)-amide]
26 | ≥ 25000 nM | 0.2 nM | N#CC1(NC(=O)[C@@H]2C[C@@H](S(=O)(=O)c3ccccc3C(F)(F)F)CN2C(=O)C2CCCCC2)CC1 [Example 104, (2S,4R)-1-Cyclohexanecarbonyl-4-(2-trifluoromethyl-benzenesulfonyl)-pyrrolidine-2-carboxylic acid (1-cyano-cyclopropyl)-amide]
27 | ≥ 25000 nM | 0.3 nM | N#CC1(NC(=O)[C@@H]2C[C@@H](S(=O)(=O)c3ccccc3C(F)(F)F)CN2C(=O)C2CCC(C(F)(F)F)CC2)CC1 (stereo partly drawn) [Example 105, (2S,4R)-4-(2-Trifluoromethyl-benzenesulfonyl)-1-(4-trifluoromethyl-cyclohexanecarbonyl)-pyrrolidine-2-carboxylic acid (1-cyano-cyclopropyl)-amide]
